Test results: patent US20150031734A1, “PHARMACEUTICAL COMPOSITION CONTAINING MIRABEGRON” (ASTELLAS PHARMA INC., priority 2012, published 2015)
Values after ≈ are worked out from the molar mass of the structure shown.

How the values were obtained:
[1] = Drug concentration (solubility) in supernatant, Experimental Example 1; format: physicochemical; conditions: shaken at room temperature for 24 hours, 150 mg as mirabegron; for solubility thermodynamic at 24 h: thermodynamic from solid
Protocol: The drug concentration (solubility) of each compound to be assayed was measured in accordance with the following method.
After the shaking, the mixtures were centrifuged at 3000 rpm for 15 minutes, and the drug concentration in each supernatant was measured.

[2] = Dissolution test, paddle method, JP2, 50 rpm, Experimental Example 3; format: physicochemical; conditions: 900 mL JP2, paddle 50 rpm
Protocol: The acid addition salts of the present invention prepared in Examples 4 and 5 (25 mg as the amount of mirabegron) were used to carry out a dissolution test in accordance with the dissolution test, method 2 (paddle method) described in the Japanese Pharmacopoeia. As the test solution, 900 mL of the second fluid (JP2) described in the disintegration test of the Japanese Pharmacopoeia was used. The paddle rotation speed was 50 rpm. The same dissolution test was carried out using the mixtures prepared in Comparative Examples 2 to 5.

[3] = Pharmacokinetics test (dogs), fasted and fed, Experimental Example 4; format: in vivo, male beagle dogs; conditions: for AUC0-10 h / Cmax: oral, 50 mg as mirabegron, plasma
Protocol: The rates of decrease of Cmax and AUC are calculated by the following equations:
Rd(Cmax)=[1−Cmax(Fed)/Cmax(Fasted)]×100
Rd(AUC)=[1−AUC(Fed)/AUC(Fasted)]×100
Rd(Cmax): Rate of decrease of Cmax (%) Cmax(Fed): Cmax in administration after food intake Cmax(Fasted): Cmax in administration in the fasted state Rd(AUC): Rate of decrease of AUC (%) AUC(Fed): AUC in administration after food intake AUC(Fasted): AUC in administration in the fasted state
The resulting suspension was orally administered to male beagle dogs using a sonde in a fasted state (Fasted) or after 30 minutes from the intake of a meal (Fed), and the drug concentration in the plasma was measured after predetermined periods of time. As the meal, 50 g of meat feed was used.

[4] = Stability of stored suspension by dissolution test, Experimental Example 5; format: physicochemical; conditions: vs before storage
Protocol: The expression “the dissolution or leakage of mirabegron is reduced or inhibited” as used herein means when the pharmaceutical composition of the present invention, which was dispersed in a solvent and has been stored, is subjected to a dissolution test in accordance with the dissolution test, method 2 (paddle method) described in the Japanese Pharmacopoeia, using 900 mL of an appropriate test solution (for example, the second fluid (JP2) described in the dissolution test of the Japanese Pharmacopoeia), for example, at a paddle rotation speed of 50-200 rpm, the change in dissolution rate is 15% or less at the maximum in comparison with the value before the storage. The change in dissolution rate is 10% or less in another embodiment, 5% or less in still another embodiment, and 3% or less in still another embodiment.
These bottles were allowed to stand in a cool place (5° C.) or under room temperature conditions for a month. The xanthan gum solution was prepared by adding xanthan gum to water at a concentration of 1 W/W % while stirring. After the storage, each suspension (25 mg as the amount of mirabegron) was used to carry out a dissolution test in accordance with the dissolution test, method 2 (paddle method) described in the Japanese Pharmacopoeia. As the test solution, 900 mL of the second fluid (JP2) described in the disintegration test of the Japanese Pharmacopoeia was used. […]

[5] = in comparison with the fasted state

What does the source list for `CCCCCCCCCCCCCCOS(=O)(=O)O.CCCCCCCCCCCCCCOS(=O)(=O)O.Nc1nc(CC(=O)Nc2ccc(CCNC[C@H](O)c3ccccc3)cc2)cs1` [Example 2]?
Drug concentration in supernatant ([1]; 10^−1 mol/L HCl): 19000 ng/mL; Drug concentration in supernatant ([1]; 10^−3 mol/L HCl): 30000 ng/mL; Drug concentration in supernatant ([1]; Purified water): 10000 ng/mL

Which results are given for `Nc1nc(CC(=O)Nc2ccc(CCNC[C@H](O)c3ccccc3)cc2)cs1` [Mirabegron, (R)-2-(2-aminothiazol-4-yl)-4′-{2-[(2-hydroxy-2-phenylethyl)amino]ethyl}acetanilide]?
solubility thermodynamic at 24 h ([1]; 10^-1 mol/L hydrochloric acid, simulated gastric fluid, 10^−1 mol/L HCl): 12900 µg/mL (≈ 32600 µM); solubility thermodynamic at 24 h ([1]; 10^-3 mol/L hydrochloric acid, aqueous buffer, 10^−3 mol/L HCl): 501 µg/mL (≈ 1260 µM); solubility thermodynamic at 24 h ([1]; Purified water): 116 µg/mL (≈ 293 µM)

What does the source list for `CCCCCCCCCCCCOS(=O)(=O)O.CCCCCCCCCCCCOS(=O)(=O)O.Nc1nc(CC(=O)Nc2ccc(CCNCC(O)c3ccccc3)cc2)cs1` (stereo not drawn) [Example 4]?
Dissolution rate ([2]; 2 min.): 5.4%; Dissolution rate ([2]; 15 min.): 14.4%

Which Dissolution rate ([2]; 2 min.) does the source give for `CCCCCCCCCCCCOS(=O)(=O)O.Nc1nc(CC(=O)Nc2ccc(CCNCC(O)c3ccccc3)cc2)cs1` (stereo not drawn) [Example 5] here?
Its Dissolution rate is 12.8%.

What about the Dissolution rate ([2]; 15 min.) of the same compound?
Its Dissolution rate is 41.3%.

For `CCCCCCCCCCCCOS(=O)(=O)O.CCCCCCCCCCCCOS(=O)(=O)O.Nc1nc(CC(=O)Nc2ccc(CCNC[C@H](O)c3ccccc3)cc2)cs1` [Example 1], which AUC0-10 h ([3]; Fasted) is on record?
Its AUC0-10 h is 1027 ± 208 ng·h/mL.

And the Cmax ([3]; Fasted)?
The Cmax was 295 ± 166 ng/mL.

What about the AUC0-10 h ([3]; Fed (30 minutes after meal)) of the same compound?
Its AUC0-10 h is 833 ± 122 ng·h/mL.

And the Cmax ([3]; Fed (30 minutes after meal))?
The Cmax was 229 ± 86 ng/mL.

And the “rate of decrease of AUC in the fed state” value [3, 5]?
Its value is 19%.

And the “rate of decrease of Cmax in the fed state” value [3, 5]?
Its value is 22%.

What about the “change in dissolution rate at the maximum” value ([4]; suspension in xanthan gum solution stored at room temperature for a month) of the same compound?
The value was 0.8%.

What about the “change in dissolution rate” value ([4]; suspension in xanthan gum solution stored in a cool place (5° C.) for a month) of the same compound?
The value was “no change in dissolution rate was observed”.

For `CCCCCCCCCCCCCCCCOS(=O)(=O)O.CCCCCCCCCCCCCCCCOS(=O)(=O)O.Nc1nc(CC(=O)Nc2ccc(CCNC[C@H](O)c3ccccc3)cc2)cs1` [Example 3], which “Drug concentration in supernatant” value ([1]; 10^−1 mol/L HCl) is on record?
The value was 64000 ng/mL.

What about the “Drug concentration in supernatant” value ([1]; 10^−3 mol/L HCl) of the same compound?
The value was 21000 ng/mL.

What about the “Drug concentration in supernatant” value ([1]; Purified water) of the same compound?
Its value is 4000 ng/mL.
